In patent US20060069132A1, “Azolecarboxamide herbicides” (priority 2004, published 2006):

How the values were obtained:
velvetleaf = experiment: Test A pre-/postemergence herbicide test; assay type: in vivo, Abutilon theophrasti; conditions: for Plant response rating, Velvetleaf: Postemergence; for Velvetleaf plant response rating: Preemergence
How it was run: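 Plants are held in greenhouse about ten days after treatment, then compared with untreated controls and scored 0 (no effect) to 100 (complete control). Preemergence dosing is a directed soil spray on sown sandy loam; postemergence dosing is spray to runoff at 2–10 cm height.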

barnyardgrass = experiment: Test B flooded paddy test; assay type: in vivo, Echinochloa crus-galli; conditions: 1000 g ai/ha, visual rating, scale 0 to 100 (0 no effect, 100 complete control), 13 to 15 days
How it was run: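 After treating 2-leaf paddy plants or 2–18 cm postemergence plants (1 to 4 leaves) with formulated chemical, researchers kept them in a greenhouse for 13–15 days. Effects were judged visually versus controls: 0 indicates none, 100 total control.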

yellow nutsedge = experiment: Test C pre-/postemergence herbicide test; assay type: in vivo, Cyperus esculentus; conditions: for Nutsedge, Yellow plant response rating: 500 g ai/ha
How it was run: (§1)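 Greenhouse-grown plants were evaluated visually 12 to 14 days after treatment, with 100 meaning complete control and 0 no effect. Application was preemergence, or postemergence at 2 to 18 cm.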

rice = experiment: Test B pre-/postemergence herbicide test; assay type: in vivo, Oryza sativa; conditions: for Plant response rating, Rice: preemergence, 125 g ai/ha, 0 to 100 scale, 0 is no effect, 100 is complete control
How it was run: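 Species tested were Echinochloa crus-galli, Ipomoea coccinea, Xanthium strumarium and Oryza sativa, treated both before emergence and at the 1- to 4-leaf stage; rice and barnyardgrass were also tested under flooding at 2 leaves. Greenhouse incubation lasted 13–15 days before visual 0–100 scoring.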

common ragweed = experiment: Test C pre-/postemergence herbicide test; assay type: in vivo, Ambrosia elatior; parameters: key to Plant response rating, Ragweed: 0 = no effect, 100 = complete control; conditions: for Ragweed plant response rating: 500 g ai/ha
How it was run: as §1

goosegrass = experiment: Test C pre-/postemergence herbicide test; assay type: in vivo, Eleusine indica; conditions: for Goosegrass plant response rating: 500 g ai/ha
How it was run: as §1

[1] = system: smallflower umbrella sedge; experiment: Test C flooded paddy test; assay type: in vivo, Cyperus difformis; conditions: for Plant response rating, Sedge, Umbrella: 500 g ai/ha, visual rating after 12 to 14 days
woolly cupgrass = experiment: Test C pre-/postemergence herbicide test; assay type: in vivo, Eriochloa villosa; conditions: for Cupgrass, Woolly plant response rating: 500 g ai/ha
How it was run: as §1

cocklebur = experiment: Test B pre-/postemergence herbicide test; assay type: in vivo, Xanthium strumarium
How it was run: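 Flooded paddy rice and barnyardgrass were treated at the 2-leaf stage; upland plantings received compound either on sown seed or on 1- to 4-leaf seedlings. All were kept 13–15 days in a greenhouse and scored visually, 0–100, relative to untreated plants.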

[2] = 2000 g ai/ha, 0 to 100 scale, 0 no effect, 100 complete control
[3] = 500 g ai/ha, visual rating, 0 to 100 scale (0 no effect, 100 complete control)
[4] = 125 g ai/ha, scale 0 (no effect) to 100 (complete control), visual, 12 to 14 days, preemergence
[5] = 250 g ai/ha, scale 0 to 100 (0 no effect, 100 complete control), visual, 12 to 14 days, preemergence
[6] = Postemergence, 250 g ai/ha, scale 0 to 100, 0 no effect, 100 complete control
[7] = Preemergence, scale 0 to 100, 0 no effect, 100 complete control
[8] = postemergence, 62 g ai/ha, scale 0 to 100
[9] = Preemergence, 500 g ai/ha, scale 0 to 100
[10] = Postemergence, 125 g ai/ha, scale 0 to 100, 0 no effect, 100 complete control
[11] = 62 g ai/ha, scale 0 to 100 (0 no effect, 100 complete control)
[12] = 125 g ai/ha, scale of 0 to 100, 0 is no effect, 100 is complete control
[13] = 250 g ai/ha, scale of 0 to 100, 0 is no effect, 100 is complete control
[14] = scale 0 to 100 (0 no effect, 100 complete control)
[15] = Postemergence, 500 g ai/ha, visual rating after 13 to 15 days, scale 0 (no effect) to 100 (complete control)
[16] = postemergence, 125 g ai/ha, visual rating, scale 0 (no effect) to 100 (complete control)
[17] = preemergence, 125 g ai/ha, 0 to 100 scale, 0 is no effect, 100 is complete control

CCNC(=O)c1cc(NC(=O)c2cc(C(C)(C)C)nn2CC)ccc1F [Compound 58]
Plant response rating, Velvetleaf (velvetleaf; [2]): 40
Velvetleaf plant response rating (velvetleaf; [3]): 70
Velvetleaf plant response rating (velvetleaf; [2]): 65
Barnyardgrass plant response rating (barnyardgrass): 80
Plant response rating (0 = no effect, 100 = complete control), Nutsedge, Yellow (yellow nutsedge; 62 g ai/ha, preemergence): 10
Plant response rating, Nutsedge, Yellow (yellow nutsedge; [4]): 20
Plant response rating, Nutsedge, Yellow (yellow nutsedge; [5]): 50
Nutsedge, Yellow plant response rating (yellow nutsedge; Postemergence, scale 0 to 100): 5
Plant response rating, Nutsedge, Yellow (yellow nutsedge; [6]): 5
Nutsedge, Yellow plant response rating (yellow nutsedge; [7]): 50
Plant response rating, Nutsedge, Yellow (yellow nutsedge; [8]): 0
Rice plant response rating (rice; [9]): 80
Plant response rating, Rice (rice): 60
Plant response rating (0 = no effect, 100 = complete control), Ragweed (common ragweed; 62 g ai/ha, preemergence): 60
Plant response rating, Ragweed (common ragweed; [4]): 85
Plant response rating, Ragweed (common ragweed; [5]): 100
Ragweed plant response rating (common ragweed; Postemergence, scale 0 to 100): 85
Plant response rating, Ragweed (common ragweed; [6]): 5
Ragweed plant response rating (common ragweed; [7]): 100
Plant response rating, Ragweed (common ragweed; [8]): 0
Plant response rating (0 = no effect, 100 = complete control), Goosegrass (goosegrass; 62 g ai/ha, preemergence): 90
Plant response rating, Goosegrass (goosegrass; [4]): 95
Plant response rating, Goosegrass (goosegrass; [5]): 95
Goosegrass plant response rating (goosegrass; Postemergence, scale 0 to 100): 30
Plant response rating, Goosegrass (goosegrass; [10]): 5
Plant response rating, Goosegrass (goosegrass; [6]): 10
Goosegrass plant response rating (goosegrass; [7]): 95
Plant response rating, Goosegrass (goosegrass; [8]): 0
Sedge, Umbrella plant response rating [1, 11]: 0
Sedge, Umbrella plant response rating [1, 12]: 20
Sedge, Umbrella plant response rating [1, 13]: 50
Plant response rating, Sedge, Umbrella [1, 14]: 65
Plant response rating (0 = no effect, 100 = complete control), Cupgrass, Woolly (woolly cupgrass; 62 g ai/ha, preemergence): 0
Plant response rating, Cupgrass, Woolly (woolly cupgrass; [4]): 40
Plant response rating, Cupgrass, Woolly (woolly cupgrass; [5]): 60
Cupgrass, Woolly plant response rating (woolly cupgrass; Postemergence, scale 0 to 100): 20
Plant response rating, Cupgrass, Woolly (woolly cupgrass; [10]): 5
Plant response rating, Cupgrass, Woolly (woolly cupgrass; [6]): 20
Cupgrass, Woolly plant response rating (woolly cupgrass; [7]): 80
Plant response rating, Cupgrass, Woolly (woolly cupgrass; [8]): 5
Plant response rating, Cocklebur (cocklebur; [15]): 100
Cocklebur plant response rating (cocklebur; [9]): 100
Cocklebur plant response rating (cocklebur; [16]): 80
Plant response rating, Cocklebur (cocklebur; [17]): 0

CCn1nc(C(C)(C)C)cc1C(=O)Nc1cccc2c1CCN(C1CC1)C2=O [Compound 64]
Plant response rating, Velvetleaf (velvetleaf; [2]): 30
Velvetleaf plant response rating (velvetleaf; [3]): 10
Velvetleaf plant response rating (velvetleaf; 2000 g ai/ha, visual rating, 0 to 100 scale (0 no effect, 100 complete control)): 35
Barnyardgrass plant response rating (barnyardgrass): 30
Plant response rating (0 = no effect, 100 = complete control), Nutsedge, Yellow (yellow nutsedge; 62 g ai/ha, preemergence): 0
Plant response rating, Nutsedge, Yellow (yellow nutsedge; [4]): 0
Nutsedge, Yellow plant response rating (yellow nutsedge; [7]): 0
Plant response rating, Rice (rice): 0
Plant response rating (0 = no effect, 100 = complete control), Ragweed (common ragweed; 62 g ai/ha, preemergence): 0
Plant response rating, Ragweed (common ragweed; [4]): 0
Ragweed plant response rating (common ragweed; [7]): 20
Plant response rating (0 = no effect, 100 = complete control), Goosegrass (goosegrass; 62 g ai/ha, preemergence): 0
Plant response rating, Goosegrass (goosegrass; [4]): 10
Goosegrass plant response rating (goosegrass; [7]): 70
Sedge, Umbrella plant response rating [1, 11]: 0
Sedge, Umbrella plant response rating [1, 12]: 25
Sedge, Umbrella plant response rating [1, 13]: 35
Plant response rating, Sedge, Umbrella [1, 14]: 75
Plant response rating (0 = no effect, 100 = complete control), Cupgrass, Woolly (woolly cupgrass; 62 g ai/ha, preemergence): 0
Plant response rating, Cupgrass, Woolly (woolly cupgrass; [4]): 0
Plant response rating, Cupgrass, Woolly (woolly cupgrass; [5]): 0
Cupgrass, Woolly plant response rating (woolly cupgrass; [7]): 10
Plant response rating, Cocklebur (cocklebur; [15]): 50
Cocklebur plant response rating (cocklebur; [9]): 0
Cocklebur plant response rating (cocklebur; [16]): 30
Plant response rating, Cocklebur (cocklebur; [17]): 0
